Results: patent US20190127366A1 (LifeSci Pharmaceuticals, Inc., priority 2015, published 2019)

What follows are molecules tested against T1, human complement factor D (Homo sapiens, UniProt P00746) (assay: In vitro enzyme inhibition (Z-Lys-SBzl/DTNB absorbance assay)). Conditions: Complement Factor D (R&D Systems), substrate Z-Lys-SBzl, A405 nm; read-out: CFD IC50.
T1 construct: purchased R&D Systems 1824-SE
Format: biochemical
Protocol: The ability of the compounds disclosed herein to inhibit human complement factor D inhibitory activity was quantified according to the 12-step protocol provided below. • 1. Prepare assay buffer: 50 mM Tris/HCl, pH 7.5, 1 M NaCl. • 2. Dilute 10 mM Complement Factor D inhibitor Nafamostat Mesilate (Selleckchem, Catalog #S1386) solution from 10000 μM to 9.77 μM in 100% DMSO, 8 concentrations. Then dilute the serial concentrations of Nafamostat Mesilate 20-fold in assay buffer. • 3. Add 10 μl diluted Nafamostat Mesilate duplicated into each of the inhibitor control well of a 96-well plate (Corning, Catalog #3599). Final concentrations were 50 μM, 25 μM, 12.5 μM, 6.25 μM, 3.125 μM, 0.781 μM, 0.195 μM and 0.049 μM. 0.5% DMSO was in each well finally. • 4. Dilute 20 mM test compounds from 10000 μM to […] in 100% DMSO, 6-fold dilution, 8 concentrations. Then dilute the serial concentrations of test compounds 20-fold in assay buffer. • 5. Add 10 μl diluted test compounds duplicated into the 96-well plate. Final concentrations were 50 μM, 8.33 μM, 1.39 μM, 0.23 μM, 0.0386 μM, 0.0064 μM, 0.0011 μM and 0.0002 μM. 0.5% DMSO was in each well finally. • 6. Dilute 20 mM substrate Z-Lys-SBzl (Bachem, Cat #M-1300) to 200 μM in assay buffer with 200 μM DTNB(Sigma, Catalog #D8130). • 7. Dilute 738 ng/μL Complement Factor D (R&D Systems, Catalog #1824-SE) to 6.25 ng/μL in assay buffer. Add 40 μl diluted Complement Factor D in the 96-well plate. • 8. Positive control well contains Complement Factor D without test compound. Negative control well contains neither Complement Factor D nor test compound. Using assay buffer, bring the total volume of all controls to 50 μl. • 9. Pre-incubate the plate for 5 min at room temperature. • 10. Add 50 μl of diluted substrate/DTNB mixture into each well. Mix the reagents completely by shaking the plate gently for 30 sec. • 11. For kinetic reading: Immediately start measuring absorbance (A405 nm) continuously and record data every 30sec for 60 min. • 12. Data analysis • Inhibition activity of compound was evaluated by IC50. IC50 was calculated according the dose-response curve of compound fitted using GraphPadPrism with “log(inhibitor)-response (variable slope)” equation. • % inhibition was calculated by using following equation:
[formula] • Mean(NC): The average value of the negative control wells' A405 nm values. • Mean(PC): The average value of the positive control wells' A405 nm values.
The ability of the compounds in Table 2 to inhibit human complement factor D inhibitory activity was determined.

T1 sequence (P00746 26-253): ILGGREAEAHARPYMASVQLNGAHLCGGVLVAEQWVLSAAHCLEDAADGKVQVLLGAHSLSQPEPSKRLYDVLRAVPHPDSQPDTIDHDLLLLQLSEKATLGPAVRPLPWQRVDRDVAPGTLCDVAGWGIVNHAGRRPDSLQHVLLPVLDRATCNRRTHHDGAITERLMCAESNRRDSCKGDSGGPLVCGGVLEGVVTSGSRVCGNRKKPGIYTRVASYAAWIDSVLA

Row | SMILES | IC50
1 | CCOC(=O)[C@@H]1C[C@@H](C(=O)NCc2cccc(Cl)c2F)N1C(=O)Cn1nc(C(N)=O)c2ccccc21 (relative stereo) [Example 194, trans-ethyl 1-(2-(3-carbamoyl-1H-indazol-1-yl)acetyl)-4-((3-chloro-2-fluorobenzyl)carbamoyl)azetidine-2-carboxylate] | 100 to 1000 nM
2 | NC(=O)c1nn(CC(=O)N2[C@H](C(=O)O)C[C@H]2C(=O)NCc2cccc(Cl)c2F)c2ccccc12 (relative stereo) [Example 195, trans-1-(2-(3-carbamoyl-1H-indazol-1-yl)acetyl)-4-((3-chloro-2-fluorobenzyl)carbamoyl)azetidine-2-carboxylic acid] | 1000 to 10000 nM
3 | NC(=O)c1nn(CC(=O)N2[C@H](C(N)=O)C[C@H]2C(=O)NCc2cccc(Cl)c2F)c2ccccc12 (relative stereo) [Example 196, trans-1-(2-(3-carbamoyl-1H-indazol-1-yl)acetyl)-N2-(3-chloro-2-fluorobenzyl)azetidine-2,4-dicarboxamide] | 1000 to 10000 nM
4 | NC(=O)c1nn(CC(=O)N2[C@@H]3CC[C@@H](C3)[C@H]2C(=O)Nc2cccc(Cl)n2)c2cnccc12 [Example 2, 1-(2-((1R,3S,4S)-3-((6-chloropyridin-2-yl)carbamoyl)-2-azabicyclo[2.2.1]heptan-2-yl)-2-oxoethyl)-1H-pyrazolo[3,4-c]pyridine-3-carboxamide] | 100 to 1000 nM
5 | NC(=O)c1nn(CC(=O)N2[C@@H]3CC[C@@H](C3)[C@H]2C(=O)Nc2cccc(C3CC3)n2)c2ccccc12 [Example 3, 1-(2-((1R,3S,4S)-3-((6-cyclopropylpyridin-2-yl)carbamoyl)-2-azabicyclo[2.2.1]heptan-2-yl)-2-oxoethyl)-1H-indazole-3-carboxamide] | 1000 to 10000 nM
6 | NC(=O)c1nn(CC(=O)N2[C@@H]3CC[C@@H](C3)[C@H]2C(=O)Nc2cccc(C3CC3)n2)c2cnccc12 [Example 4, 1-(2-((1R,3S,4S)-3-((6-cyclopropylpyridin-2-yl)carbamoyl)-2-azabicyclo[2.2.1]heptan-2-yl)-2-oxoethyl)-1H-pyrazolo[3,4-c]pyridine-3-carboxamide] | 1000 to 10000 nM
7 | NC(=O)c1nn(CC(=O)N2[C@@H]3CC[C@@H](C3)[C@H]2C(=O)Nc2cccc(C3CC3)n2)c2cc(C3CC3)ccc12 [Example 5, 6-cyclopropyl-1-(2-((1R,3S,4S)-3-((6-cyclopropylpyridin-2-yl)carbamoyl)-2-azabicyclo[2.2.1]heptan-2-yl)-2-oxoethyl)-1H-indazole-3-carboxamide] | 1000 to 10000 nM
8 | Cc1cccc(NC(=O)[C@@H]2[C@H]3CC[C@H](C3)N2C(=O)Cn2nc(C(N)=O)c3ccccc32)n1 [Example 6, 1-(2-((1R,3S,4S)-3-((6-methylpyridin-2-yl)carbamoyl)-2-azabicyclo[2.2.1]heptan-2-yl)-2-oxoethyl)-1H-indazole-3-carboxamide] | 1000 to 10000 nM
9 | Cc1cccc(NC(=O)[C@@H]2[C@H]3CC[C@H](C3)N2C(=O)Cn2nc(C(N)=O)c3ccncc32)n1 [Example 7, 1-(2-((1R,3S,4S)-3-((6-methylpyridin-2-yl)carbamoyl)-2-azabicyclo[2.2.1]heptan-2-yl)-2-oxoethyl)-1H-pyrazolo[3,4-c]pyridine-3-carboxamide] | 1000 to 10000 nM
10 | NC(=O)c1nn(CC(=O)N2[C@@H]3CC[C@@H](C3)[C@H]2C(=O)Nc2cccc(C(F)(F)F)n2)c2ccccc12 [Example 8, 1-(2-oxo-2-((1R,3S,4S)-3-((6-(trifluoromethyl)pyridin-2-yl)carbamoyl)-2-azabicyclo[2.2.1]heptan-2-yl)ethyl)-1H-indazole-3-carboxamide] | 1000 to 10000 nM
11 | NC(=O)c1nn(CC(=O)N2[C@@H]3CC[C@@H](C3)[C@H]2C(=O)Nc2cccc(C(F)(F)F)n2)c2cnccc12 [Example 9, 1-(2-oxo-2-((1R,3S,4S)-3-((6-(trifluoromethyl)pyridin-2-yl)carbamoyl)-2-azabicyclo[2.2.1]heptan-2-yl)ethyl)-1H-pyrazolo[3,4-c]pyridine-3-carboxamide] | 100 to 1000 nM
12 | NC(=O)c1nn(CC(=O)N2[C@@H]3CCC(C3)[C@H]2C(=O)Nc2cccc(Cl)n2)c2ccc(Cl)cc12 [Example 12, 5-chloro-1-(2-((1R,3S)-3-((6-chloropyridin-2-yl)carbamoyl)-2-azabicyclo[2.2.1]heptan-2-yl)-2-oxoethyl)-1H-indazole-3-carboxamide] | 1000 to 10000 nM
13 | NC(=O)c1nn(CC(=O)N2C3CCC(C3)[C@H]2C(=O)Nc2cccc(C(F)(F)F)n2)c2ccccc12 (stereo partly drawn) [Example 13, 1-(2-oxo-2-((3S)-3-((6-(trifluoromethyl)pyridin-2-yl)carbamoyl)-2-azabicyclo[2.2.1]heptan-2-yl)ethyl)-1H-indazole-3-carboxamide] | 1000 to 10000 nM
14 | NC(=O)c1nn(CC(=O)N2C3CCC(C3)[C@H]2C(=O)Nc2cccc(C(F)(F)F)n2)c2ccc(C3CC3)cc12 (stereo partly drawn) [Example 14, 5-cyclopropyl-1-(2-oxo-2-((3S)-3-((6-(trifluoromethyl)pyridin-2-yl)carbamoyl)-2-azabicyclo[2.2.1]heptan-2-yl)ethyl)-1H-indazole-3-carboxamide] | 1000 to 10000 nM
15 | NC(=O)c1nn(CC(=O)N2[C@H]3CC[C@H](C3)[C@H]2C(=O)Nc2cccc(Cl)n2)c2ccc(Cl)cc12 [Example 16, 5-chloro-1-(2-((1S,3S,4R)-3-((6-chloropyridin-2-yl)carbamoyl)-2-azabicyclo[2.2.1]heptan-2-yl)-2-oxoethyl)-1H-indazole-3-carboxamide] | 1000 to 10000 nM
16 | NC(=O)c1nn(CC(=O)N2[C@H]3CC[C@H](C3)[C@@H]2C(=O)Nc2cccc(C(F)(F)F)n2)c2ccccc12 [Example 17, 1-(2-oxo-2-((1S,3R,4R)-3-((6-(trifluoromethyl)pyridin-2-yl)carbamoyl)-2-azabicyclo[2.2.1]heptan-2-yl)ethyl)-1H-indazole-3-carboxamide] | 1000 to 10000 nM
17 | NC(=O)c1nn(CC(=O)N2[C@H]3CC[C@H](C3)[C@@H]2C(=O)Nc2cccc(Cl)n2)c2ccccc12 [Example 19, 1-(2-((1S,3R,4R)-3-((6-chloropyridin-2-yl)carbamoyl)-2-azabicyclo[2.2.1]heptan-2-yl)-2-oxoethyl)-1H-indazole-3-carboxamide] | 100 to 1000 nM
18 | NC(=O)c1nn(CC(=O)N2CCCC[C@H]2C(=O)Nc2cccc(Br)n2)c2ccccc12 [Example 20, (S)-1-(2-(2-((6-bromopyridin-2-yl)carbamoyl)piperidin-1-yl)-2-oxoethyl)-1H-indazole-3-carboxamide] | 100 to 1000 nM
19 | NC(=O)c1nn(CC(=O)N2CCOC[C@H]2C(=O)Nc2cccc(Cl)n2)c2ccccc12 [Example 22, (S)-4-(2-(3-carbamoyl-1H-indazol-1-yl)acetyl)-N-(6-chloropyridin-2-yl)morpholine-3-carboxamide] | 1000 to 10000 nM
20 | NC(=O)c1nn(CC(=O)N2CCOC[C@H]2C(=O)Nc2cccc(C(F)(F)F)n2)c2ccccc12 [Example 23, (S)-4-(2-(3-carbamoyl-1H-indazol-1-yl)acetyl)-N-(6-(trifluoromethyl)pyridin-2-yl)morpholine-3-carboxamide] | 1000 to 10000 nM
21 | NC(=O)c1nn(CC(=O)N2CCOC[C@H]2C(=O)Nc2cccc(Br)n2)c2ccccc12 [Example 24, (S)-N-(6-bromopyridin-2-yl)-4-(2-(3-carbamoyl-1H-indazol-1-yl)acetyl)morpholine-3-carboxamide] | 1000 to 10000 nM
